Data: PubChem BioAssay (NCI)
Where “and” joins values, the source holds several entries; their conditions need not be identical. Identical values can stand only once.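 Step 1: Grow cells in 96-well plates. Step 2: Expose to compound for 48 hours at 5 concentrations. Step 3: Interpolate endpoints linearly; if unreached, use highest concentration. Abbreviation: GI50, concentration required for 50% inhibition of growth. TGI is the concentration that stops growth completely.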

Tests used:
Test in all cases: DTP human tumour cell line panel, 48 h
[1] = system: HOP-92 NSCLC
[2] = system: KM12 colon
[3] = system: NCI-H23 lung
[4] = system: OVCAR-3 ovarian
[5] = system: RXF 393 renal
[6] = system: SN12C renal
[7] = system: TK-10 renal
[8] = system: U251 CNS
[9] = system: HL-60(TB) leukemia

CCOC(=O)C(c1ccsc1)P(=O)(OCC)OCC (stereo unspecified)
TGI [1]: 46.4 µM | TGI [2]: 28.4 µM | TGI [3]: 36.7 µM | TGI [4]: 26.9 µM | TGI [5]: 28.9 µM | TGI [6]: 30.1 µM | TGI [7]: 41 µM | TGI [8]: 45.4 µM

COc1ccc(-c2cc(-c3ccco3)c(C#N)c(=O)n2C2OC(COC(C)=O)C(OC(C)=O)C(OC(C)=O)C2OC(C)=O)cc1 (stereo unspecified)
TGI [1]: > 100 µM and 62.7 µM | TGI [2]: > 100 µM | TGI [3]: > 100 µM | GI50 [4]: > 100 µM and 18.1 µM | TGI [4]: > 100 µM and 44.3 µM | GI50 [5]: > 100 µM and 21.8 µM | TGI [5]: > 100 µM and 66.2 µM | GI50 [6]: > 100 µM and 18.9 µM | TGI [6]: > 100 µM and 55.2 µM | TGI [7]: > 100 µM and 78.4 µM | GI50 [8]: > 100 µM and 16.1 µM | TGI [8]: > 100 µM and 34.7 µM

CN(C)c1ccc(-c2nc(N)nc3c2CCCC3)cc1
TGI [9]: > 100 µM | TGI [2]: > 100 µM | TGI [3]: > 100 µM | TGI [4]: 96.7 µM | TGI [5]: > 100 µM | TGI [6]: > 100 µM | TGI [7]: > 100 µM | TGI [8]: > 100 µM

CN1C=C(C(N)=O)Cc2ccsc21
TGI [9]: > 100 µM | TGI [1]: > 100 µM | TGI [2]: > 100 µM | TGI [3]: > 100 µM | TGI [4]: > 100 µM | TGI [5]: > 100 µM | TGI [6]: > 100 µM | TGI [8]: > 100 µM

Cc1ccc(C)c(NC(=O)C(=O)C(C2C(C)CC(=O)C2CC(=O)O)[N+](=O)[O-])c1 (stereo unspecified)
TGI [9]: > 100 µM | TGI [1]: > 100 µM | TGI [2]: > 100 µM | TGI [3]: > 100 µM | TGI [4]: > 100 µM | TGI [5]: > 100 µM | TGI [6]: > 100 µM | TGI [7]: > 100 µM | TGI [8]: > 100 µM

CCCCCCCCCCCCNC(=S)OCCCC
TGI [9]: 40.4 µM | TGI [1]: > 100 µM | TGI [2]: > 100 µM | TGI [3]: > 100 µM | TGI [5]: > 100 µM | TGI [6]: > 100 µM | TGI [7]: > 100 µM | TGI [8]: > 100 µM

Nc1ncnc2c1ncn2C1(CO)OC(CO)C(O)C1O (stereo unspecified)
TGI [9]: > 100 µM | TGI [1]: > 100 µM | TGI [2]: > 100 µM | TGI [3]: > 100 µM | TGI [5]: > 100 µM | TGI [6]: > 100 µM | TGI [7]: > 100 µM | TGI [8]: > 100 µM

Cc1ccccc1-c1cc(=O)c2cc(C)c(C)c(C(=O)O)c2o1
TGI [9]: > 100 µM | TGI [1]: > 100 µM | TGI [2]: > 100 µM | TGI [3]: > 100 µM | TGI [4]: > 100 µM | TGI [6]: > 100 µM | TGI [7]: > 100 µM | TGI [8]: > 100 µM

COC(=O)C(C(=O)C(=O)Nc1nc2ccc(OC)cc2s1)c1cnc2ccccc2n1 (stereo unspecified)
TGI [1]: > 100 µM | TGI [2]: > 100 µM | TGI [3]: > 100 µM | TGI [4]: > 100 µM | TGI [5]: > 100 µM | TGI [6]: > 100 µM | TGI [7]: > 100 µM | TGI [8]: > 100 µM

O=S(=O)(c1ccccc1)C1(C2(S(=O)(=O)c3ccccc3)CCN=N2)CCN=N1 (stereo unspecified)
TGI [9]: > 100 µM | TGI [2]: > 100 µM | TGI [3]: > 100 µM | TGI [4]: > 100 µM | TGI [5]: > 100 µM | TGI [6]: > 100 µM | TGI [7]: > 100 µM | TGI [8]: > 100 µM

C=CCN=C1NC(=O)C(CC(=O)Nc2ccc([N+](=O)[O-])cc2[N+](=O)[O-])S1 (stereo unspecified)
TGI [9]: > 100 µM | TGI [1]: > 100 µM | TGI [2]: > 100 µM | TGI [3]: > 100 µM | TGI [4]: > 100 µM | TGI [5]: > 100 µM | TGI [6]: > 100 µM | TGI [7]: > 100 µM | TGI [8]: > 100 µM

COc1ccc(C)cc1-c1ccc(-c2cc(C)ccc2OC)o1
TGI [9]: > 100 µM | TGI [1]: > 100 µM | TGI [2]: > 100 µM | TGI [3]: > 100 µM | TGI [4]: > 100 µM | TGI [6]: > 100 µM | TGI [7]: > 100 µM | TGI [8]: > 100 µM

CCCOC(=O)C1C(c2ccc(OC)cc2)NC(c2ccc(OC)cc2)C(C(=O)OCCC)S1(=O)=O (stereo unspecified)
TGI [9]: > 100 µM | GI50 [2]: > 100 µM | TGI [2]: > 100 µM | GI50 [3]: > 100 µM | TGI [3]: > 100 µM | GI50 [4]: > 100 µM | TGI [4]: > 100 µM | GI50 [5]: > 100 µM | TGI [5]: > 100 µM | GI50 [6]: > 100 µM | TGI [6]: > 100 µM | GI50 [7]: > 100 µM | TGI [7]: > 100 µM | GI50 [8]: > 100 µM | TGI [8]: > 100 µM

CC1(C)CCOC(Sc2ccccc2)C1 (stereo unspecified)
TGI [9]: 34.4 µM | TGI [2]: > 100 µM | TGI [3]: > 100 µM | TGI [4]: > 100 µM | TGI [5]: > 100 µM | TGI [6]: > 100 µM | TGI [7]: > 100 µM | TGI [8]: > 100 µM

O=C1c2ccccc2C(=O)N1CCN(CCN1C(=O)c2ccccc2C1=O)Cc1ccccc1
TGI [9]: > 100 µM | TGI [1]: > 100 µM | TGI [2]: > 100 µM | TGI [3]: > 100 µM | TGI [4]: > 100 µM | TGI [5]: > 100 µM | TGI [6]: > 100 µM | TGI [7]: > 100 µM | TGI [8]: > 100 µM

O=C1CC2=CCCC2O1 (stereo unspecified)
TGI [9]: > 100 µM | TGI [1]: > 100 µM | TGI [2]: > 100 µM | TGI [3]: > 100 µM | TGI [4]: > 100 µM | TGI [5]: > 100 µM | TGI [6]: > 100 µM | TGI [7]: > 100 µM | TGI [8]: > 100 µM

O=C1C=C(c2ccccc2)NC1(c1ccccc1)c1cc(-c2ccccc2)[nH]c1-c1ccccc1 (stereo unspecified)
TGI [9]: > 100 µM | TGI [2]: > 100 µM | TGI [3]: > 100 µM | TGI [4]: > 100 µM | TGI [5]: 0.586 µM | TGI [6]: > 100 µM | TGI [8]: > 100 µM

COC(=O)N1C=CC2=C(C)C3Nc4ccccc4C3C(C)=C2C1 (stereo unspecified)
TGI [9]: 11.9 µM | TGI [1]: 10.1 µM | TGI [3]: > 100 µM | TGI [4]: 3.69 µM | TGI [7]: 7.24 µM | TGI [8]: > 100 µM
